Calls of active or inactive are those of the source. No cut-off for these calls is given here.
How the values were obtained:
PC-12 [1] = experiment: Neuroprotection against H2O2-induced oxidative damage in rat PC12 cells assessed as late apoptotic cells at 2.5 uM after 24 hrs in presence of H2O2 by annexin V-FITC/propidium iodide staining based flow cytometric analysis (reference value: 29.8%); assay type: functional
PC-12 [2] = experiment: Neuroprotection against H2O2-induced oxidative damage in rat PC12 cells assessed as early apoptotic cells at 5 uM after 24 hrs in presence of H2O2 by annexin V-FITC/propidium iodide staining based flow cytometric analysis (reference value: 2.1%); assay type: functional
PC-12 [3] = experiment: Neuroprotection against H2O2-induced oxidative damage in rat PC12 cells assessed as necrotic cells at 5 uM after 24 hrs in presence of H2O2 by annexin V-FITC/propidium iodide staining based flow cytometric analysis (reference value: 4.5%); assay type: functional
PC-12 [4] = experiment: Neuroprotection against H2O2-induced oxidative damage in rat PC12 cells assessed as viable cells at 5 uM after 24 hrs in presence of H2O2 by annexin V-FITC/propidium iodide staining based flow cytometric analysis (reference value: 63.6%); assay type: functional; conditions: PC-12, 24 h, read-out: Activity
PC-12 [5] = experiment: Neuroprotection against H2O2-induced oxidative damage in rat PC12 cells assessed as viable cells at 10 uM after 24 hrs in presence of H2O2 by annexin V-FITC/propidium iodide staining based flow cytometric analysis (reference value: 63.6%); assay type: functional; conditions: PC-12, 24 h, read-out: Activity
PC-12 [6] = experiment: Neuroprotection against H2O2-induced oxidative damage in rat PC12 cells assessed as mitochondrial membrane potential at 5 uM after 24 hrs in presence of H2O2 by Jc-1 staining based flow cytometric analysis (reference value: 16.35 +/- 3.19%); assay type: functional
PC-12 [7] = experiment: Neuroprotection against H2O2-induced oxidative damage in rat PC12 cells assessed as intracellular Ca2+ level by measuring mean fluorescence intensity at 5 uM after 24 hrs in presence of H2O2 by Fluo-3/AM staining based flow cytometric analysis (reference value: 43156); assay type: functional
PC-12 [8] = experiment: Neuroprotection against H2O2-induced oxidative damage in rat PC12 cells assessed as late apoptotic cells at 2.5 uM after 24 hrs in presence of H2O2 by annexin V-FITC/propidium iodide staining based flow cytometric analysis (reference value: 6.2%); assay type: functional
PC-12 [9] = experiment: Neuroprotection against H2O2-induced oxidative damage in rat PC12 cells assessed as necrotic cells at 5 uM after 24 hrs in presence of H2O2 by annexin V-FITC/propidium iodide staining based flow cytometric analysis (reference value: 0.4%); assay type: functional
PC-12 [10] = experiment: Neuroprotection against H2O2-induced oxidative damage in rat PC12 cells assessed as viable cells at 5 uM after 24 hrs in presence of H2O2 by annexin V-FITC/propidium iodide staining based flow cytometric analysis (reference value: 64.1%); assay type: functional; conditions: PC-12, 24 h, read-out: Activity
PC-12 [11] = experiment: Neuroprotection against H2O2-induced oxidative damage in rat PC12 cells assessed as early apoptotic cells at 10 uM after 24 hrs in presence of H2O2 by annexin V-FITC/propidium iodide staining based flow cytometric analysis (reference value: 29.3%); assay type: functional
PC-12 [12] = experiment: Neuroprotection against H2O2-induced oxidative damage in rat PC12 cells assessed as necrotic cells at 10 uM after 24 hrs in presence of H2O2 by annexin V-FITC/propidium iodide staining based flow cytometric analysis (reference value: 0.4%); assay type: functional
PC-12 [13] = experiment: Neuroprotection against H2O2-induced oxidative damage in rat PC12 cells assessed as increase in mitochondrial membrane potential at 2.5 to 10 uM after 24 hrs in presence of H2O2 by JC-1 staining based flow cytometric analysis; assay type: functional, cell-based
PC-12 [14] = experiment: Neuroprotection against H2O2-induced oxidative damage in rat PC12 cells assessed as intracellular Ca2+ level by measuring mean fluorescence intensity at 5 uM after 24 hrs in presence of H2O2 by Fluo-3/AM staining based flow cytometric analysis (reference value: 51697); assay type: functional
[15] = Neuroprotection against H2O2-induced inflammation in human BV2 cells assessed as reduction in ROS production by measuring mean fluorescence intensity at 2.5 uM after 18 hrs by DCFH-DA staining-based flow cytometric analysis (reference value: 20004); assay type: functional

Structure (SMILES)	Activity (PC-12 [1]) [%]	Activity (PC-12 [2]) [%]	Activity (PC-12 [3]) [%]	viability at 5 µM (PC-12 [4]) [%]	viability at 10 µM (PC-12 [5]) [%]	Activity (PC-12 [6]) [%]	Flu intensity (PC-12 [7])	Activity (PC-12 [8]) [%]	Activity (PC-12 [9]) [%]	viability at 5 µM (PC-12 [10]) [%]	Activity (PC-12 [11]) [%]	Activity (PC-12 [12]) [%]	Activity (PC-12 [13])	Flu intensity (PC-12 [14])	Flu intensity [15]
CC(C)=CCc1c(O)cc(/C=C/c2ccc3c(c2)[C@H](c2cc(O)c4c(c2)OC(C)(C)CC4)[C@@H](c2ccc(O)cc2)O3)cc1O	25.1	1.9	1.8	84	92.7	68.51	37986	–	–	–	–	–	–	–	–
CC(C)=CCc1c(O)cc(/C=C/c2ccc3c(c2)[C@H](c2cc(O)c(CC=C(C)C)c(O)c2)[C@@H](c2ccc(O)cc2)O3)cc1O	–	–	–	–	–	–	–	4.2	0.7	82.2	10.3	0.7	Active	38796	14563
